Assay results as given in patent publication US20250320213A1, “Nitrogen-Containing Heterocyclic Compounds” (Pfizer Inc., priority 2024, published 2025).

Molecular target: T1, STAT6 (Homo sapiens, UniProt P42226)
T1 construct: stably transfected HaCaT keratinocyte cell line, which expresses NanoLuc luciferase reporter gene under the transcriptional control of the STAT6 responsive promoter; endogenous in cells; host or cells: HaCaT keratinocyte reporter cell line (stably transfected with a NanoLuc reporter)
T1 sequence (P42226 1-847): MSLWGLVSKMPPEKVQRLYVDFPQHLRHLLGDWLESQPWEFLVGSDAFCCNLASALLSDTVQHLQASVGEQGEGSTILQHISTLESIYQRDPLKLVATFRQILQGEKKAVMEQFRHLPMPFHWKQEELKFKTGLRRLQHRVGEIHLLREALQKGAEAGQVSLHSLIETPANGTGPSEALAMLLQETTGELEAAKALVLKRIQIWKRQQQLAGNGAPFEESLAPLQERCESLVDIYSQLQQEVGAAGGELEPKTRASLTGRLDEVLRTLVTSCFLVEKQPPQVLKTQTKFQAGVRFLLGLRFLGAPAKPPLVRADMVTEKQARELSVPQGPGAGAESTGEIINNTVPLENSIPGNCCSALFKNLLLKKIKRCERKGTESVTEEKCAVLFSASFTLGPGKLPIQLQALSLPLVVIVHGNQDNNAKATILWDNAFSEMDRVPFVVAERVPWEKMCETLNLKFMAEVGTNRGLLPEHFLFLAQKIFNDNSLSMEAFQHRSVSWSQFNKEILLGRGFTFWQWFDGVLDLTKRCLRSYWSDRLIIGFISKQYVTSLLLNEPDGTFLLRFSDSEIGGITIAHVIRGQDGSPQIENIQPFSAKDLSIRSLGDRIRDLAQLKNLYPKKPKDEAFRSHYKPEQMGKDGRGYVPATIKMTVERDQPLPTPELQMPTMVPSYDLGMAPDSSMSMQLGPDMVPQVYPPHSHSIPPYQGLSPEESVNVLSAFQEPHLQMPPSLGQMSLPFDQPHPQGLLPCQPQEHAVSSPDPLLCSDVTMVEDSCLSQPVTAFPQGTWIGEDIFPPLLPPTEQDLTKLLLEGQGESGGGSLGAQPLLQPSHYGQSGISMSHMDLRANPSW
Assay: STAT6 Reporter Luciferase Assay (IL-13 stimulated HaCaT keratinocyte NanoLuc reporter cells)
Type: cell-based
Settings: IL-13 stimulated HaCaT STAT6 NanoLuc reporter cells; read-out: Reporter EC50
Outline: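 Compounds were tested as 11-point, 4-fold series in duplicate, applied for 2 h at 37 °C in low-serum (2% FBS) DMEM. The cells were a stable HaCaT line with NanoLuc under a STAT6-responsive IL-13Ra2 promoter. After 4 h with 0.12 nM IL-13, Nano-Glo luminescence was measured.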

For CC(C)n1nc(C(=O)NCc2ccc(NC(=O)N3CC4(CCCN(C)C4)C3)cc2)c2c1[C@@H](C)CN(c1ccc(C(=O)N(C)C)cc1)C2 [Example 741, (S)-5-(4-(dimethylcarbamoyl)phenyl)-1-isopropyl-7-methyl-N-(4-(6-methyl-2,6-diazaspiro[3.5]nonane-2-carboxamido)benzyl)-4,5,6,7-tetrahydro-1H-pyrazolo[4,3-c]pyridine-3-carboxamide], the EC50 was 1 nM.

For CC(C)n1nc(C(=O)NCc2ccc(NC(=O)N3CCC4(CC3)CN(C)C4)cc2)c2c1[C@@H](C)CN(c1ccc(C(=O)N(C)C)cc1)C2 [Example 742, (S)-5-(4-(dimethylcarbamoyl)phenyl)-1-isopropyl-7-methyl-N-(4-(2-methyl-2,7-diazaspiro[3.5]nonane-7-carboxamido)benzyl)-4,5,6,7-tetrahydro-1H-pyrazolo[4,3-c]pyridine-3-carboxamide], the EC50 was 1 nM.

CC(C)n1nc(C(=O)NCc2ccc(NC(=O)N3CCN(C)[C@H](C)C3)cc2)c2c1[C@@H](C)CN(c1ccc(C(=O)N(C)C)cc1)C2 [Example 743, (S)-5-(4-(dimethylcarbamoyl)phenyl)-N-(4-((R)-3,4-dimethylpiperazine-1-carboxamido)benzyl)-1-isopropyl-7-methyl-4,5,6,7-tetrahydro-1H-pyrazolo[4,3-c]pyridine-3-carboxamide] showed an EC50 of 1 nM.

Work on CCN1CCN(C(=O)Nc2ccc(CNC(=O)c3nn(C(C)C)c4c3CN(c3ccc(C(=O)N(C)C)cc3)C[C@@H]4C)cc2)CC1 [Example 745, (S)-5-(4-(dimethylcarbamoyl)phenyl)-N-(4-(4-ethylpiperazine-1-carboxamido)benzyl)-1-isopropyl-7-methyl-4,5,6,7-tetrahydro-1H-pyrazolo[4,3-c]pyridine-3-carboxamide] yielded an EC50 of 1 nM.

CC(C)n1nc(C(=O)NCc2ccc(NC(=O)N3CC(N(C)C)C3)cc2)c2c1[C@@H](C)CN(c1ccc(C(=O)N(C)C)cc1)C2 [Example 746, (S)-N-(4-(3-(dimethylamino)azetidine-1-carboxamido)benzyl)-5-(4-(dimethylcarbamoyl)phenyl)-1-isopropyl-7-methyl-4,5,6,7-tetrahydro-1H-pyrazolo[4,3-c]pyridine-3-carboxamide] gave an EC50 of 1 nM.

Compound CC(C)n1nc(C(=O)NCc2ccc(NC(=O)N3CC[C@H](N(C)C)C3)cc2)c2c1[C@@H](C)CN(c1ccc(C(=O)N(C)C)cc1)C2 [Example 747, (S)-N-(4-((S)-3-(dimethylamino)pyrrolidine-1-carboxamido)benzyl)-5-(4-(dimethylcarbamoyl)phenyl)-1-isopropyl-7-methyl-4,5,6,7-tetrahydro-1H-pyrazolo[4,3-c]pyridine-3-carboxamide] has an EC50 of 1 nM.

CC(C)n1nc(C(=O)NCc2ccc(NC(=O)N3CC(C)(N(C)C)C3)cc2)c2c1[C@@H](C)CN(c1ccc(C(=O)N(C)C)cc1)C2 [Example 748, (S)-N-(4-(3-(dimethylamino)-3-methylazetidine-1-carboxamido)benzyl)-5-(4-(dimethylcarbamoyl)phenyl)-1-isopropyl-7-methyl-4,5,6,7-tetrahydro-1H-pyrazolo[4,3-c]pyridine-3-carboxamide] was tested, and the EC50 was 1 nM.

CC(C)n1nc(C(=O)NCc2ccc(NC(=O)N3CCC4(CCN(C)CC4)CC3)cc2)c2c1[C@@H](C)CN(c1ccc(C(=O)N(C)C)cc1)C2 [Example 749, (S)-N-(4-((5-(4-(dimethylcarbamoyl)phenyl)-1-isopropyl-7-methyl-4,5,6,7-tetrahydro-1H-pyrazolo[4,3-c]pyridine-3-carboxamido)methyl)phenyl)-9-methyl-3,9-diazaspiro[5.5]undecane-3-carboxamide] showed an EC50 of 0.4 nM.

Work on CC(C)n1nc(C(=O)NCc2ccc(NC(=O)N3CC[C@@H](N(C)C)C3)cc2)c2c1[C@@H](C)CN(c1ccc(C(=O)N(C)C)cc1)C2 [Example 750, (S)-N-(4-((R)-3-(dimethylamino)pyrrolidine-1-carboxamido)benzyl)-5-(4-(dimethylcarbamoyl)phenyl)-1-isopropyl-7-methyl-4,5,6,7-tetrahydro-1H-pyrazolo[4,3-c]pyridine-3-carboxamide] yielded an EC50 of 1 nM.

CC(C)n1nc(C(=O)NCc2ccc(NC(=O)N3CC4(CN(C)C4)C3)cc2)c2c1[C@@H](C)CN(c1ccc(C(=O)N(C)C)cc1)C2 [Example 751, (S)-5-(4-(dimethylcarbamoyl)phenyl)-1-isopropyl-7-methyl-N-(4-(6-methyl-2,6-diazaspiro[3.3]heptane-2-carboxamido)benzyl)-4,5,6,7-tetrahydro-1H-pyrazolo[4,3-c]pyridine-3-carboxamide] showed an EC50 of 9 nM.

For CC(C)n1nc(C(=O)NCc2ccc(NC(=O)N3CCC(C)(N(C)C)C3)cc2)c2c1[C@@H](C)CN(c1ccc(C(=O)N(C)C)cc1)C2 (stereo partly drawn) [Example 752, (7S)-N-(4-(3-(dimethylamino)-3-methylpyrrolidine-1-carboxamido)benzyl)-5-(4-(dimethylcarbamoyl)phenyl)-1-isopropyl-7-methyl-4,5,6,7-tetrahydro-1H-pyrazolo[4,3-c]pyridine-3-carboxamide], the EC50 was 2 nM.

In the case of CC(C)n1nc(C(=O)NCc2ccc(NC(=O)N3CCC4(CCN(C)C4)CC3)cc2)c2c1[C@@H](C)CN(c1ccc(C(=O)N(C)C)cc1)C2 [Example 753, (S)-N-(4-((5-(4-(dimethylcarbamoyl)phenyl)-1-isopropyl-7-methyl-4,5,6,7-tetrahydro-1H-pyrazolo[4,3-c]pyridine-3-carboxamido)methyl)phenyl)-2-methyl-2,8-diazaspiro[4.5]decane-8-carboxamide], the EC50 is reported as 0.5 nM.

In the case of CC(C)n1nc(C(=O)NCc2ccc(NC(=O)N3CCC[C@@H](N(C)C)C3)cc2)c2c1[C@@H](C)CN(c1ccc(C(=O)N(C)C)cc1)C2 [Example 754, (S)-N-(4-((R)-3-(dimethylamino)piperidine-1-carboxamido)benzyl)-5-(4-(dimethylcarbamoyl)phenyl)-1-isopropyl-7-methyl-4,5,6,7-tetrahydro-1H-pyrazolo[4,3-c]pyridine-3-carboxamide], the EC50 is reported as 2 nM.

CC(C)n1nc(C(=O)NCc2ccc(NC(=O)N3CCC[C@H](N(C)C)C3)cc2)c2c1[C@@H](C)CN(c1ccc(C(=O)N(C)C)cc1)C2 [Example 755, (S)-N-(4-((S)-3-(dimethylamino)piperidine-1-carboxamido)benzyl)-5-(4-(dimethylcarbamoyl)phenyl)-1-isopropyl-7-methyl-4,5,6,7-tetrahydro-1H-pyrazolo[4,3-c]pyridine-3-carboxamide] gave an EC50 of 2 nM.

In the case of CC(C)n1nc(C(=O)NCc2ccc(NC(=O)N3CC[C@H](CN(C)C)C3)cc2)c2c1[C@@H](C)CN(c1ccc(C(=O)N(C)C)cc1)C2 [Example 756, (S)-N-(4-((R)-3-((dimethylamino)methyl)pyrrolidine-1-carboxamido)benzyl)-5-(4-(dimethylcarbamoyl)phenyl)-1-isopropyl-7-methyl-4,5,6,7-tetrahydro-1H-pyrazolo[4,3-c]pyridine-3-carboxamide], the EC50 is reported as 1 nM.

Compound CC(C)n1nc(C(=O)NCc2ccc(NC(=O)N3CCC4(CCCN(C)C4)CC3)cc2)c2c1[C@@H](C)CN(c1ccc(C(=O)N(C)C)cc1)C2 [Example 757, (S)-N-(4-((5-(4-(dimethylcarbamoyl)phenyl)-1-isopropyl-7-methyl-4,5,6,7-tetrahydro-1H-pyrazolo[4,3-c]pyridine-3-carboxamido)methyl)phenyl)-2-methyl-2,9-diazaspiro[5.5]undecane-9-carboxamide] has an EC50 of 0.3 nM.
